The results in this text go back to PMC7024211, “Antifouling Napyradiomycins from Marine-Derived Actinomycetes Streptomyces aculeolatus” (Marine Drugs, 2020).

In brackets after ≈: the same amount, converted by molar mass. A value given as a limit tells only on which side of the number the result lay.

The test system of data set [1] is C. marina. Nature of the data set: Biofilm inhibition assay (crystal violet). The note with it: 31.25 µg/mL. In kind it is cell-based, Cobetia marina. Here is the method: (§1) In a 96-well plate, biofilm grown cultures of M. hydrocarbonoclasticus and C. marina were incubated with napyradiomycins (1–12) at a concentration of 31.25 µg/mL. After discarding the media, biofilm inhibition was determined from OD600 measurements of crystal violet stained cells resuspended from the plate bottom with acetic acid.
(§2) Five marine bacterial species were used as models to assess antimicrofouling activity. The biofilm-forming marine bacteria Marinobacter hydrocarbonoclasticus DSM 8798 (ATCC 49840), Cobetia marina DSM 4741, Phaeobacter inhibens DSM 17,395, and Pseusooceanicola batsensis DSM 15,984 were obtained from DSMZ (Leibniz Institute DSMZ—German collection of Microorganisms and Cell Cultures) and Micrococcus luteus. Cultures were routinely grown in liquid marine broth (Carl Roth GmbH, Karlsruhe, Germany) with agitation (180 rpm) or on agar-supplemented marine broth, at 28 °C (M. hydrocarbonoclasticus and C. marina) or 30 °C (P. inhibens and P. batsensis). M. luteus was maintained in Brain Heart Infusion broth (BHI, Becton Dickinson, GmbH, Heidelberg, Germany) with agitation (180 rpm) or on agar-supplemented BHI, at 37 °C.
(§3) The antibiofilm activity of napyradiomycins (1–12) against the five marine bacterial species was assessed in 96-well polystyrene flat bottom microplates (Nunclon Delta Surface, Thermo Scientific, Roskilde, Denmark) as previously reported. For initial screening, bacterial overnight cultures were diluted to an optical density (OD600nm) value of 0.2 and incubated statically at 28 °C (M. hydrocarbonoclasticus, C. marina), 30 °C (P. inhibens, P. batsensis) or 37 °C (M. luteus) in the 96-well microplate in the presence or absence of 31.25 µg/mL of napyradiomycins, solubilized in DMSO. After 24 h (M. hydrocarbonoclasticus, C. marina) or 48 h (P. batsensis, P. inhibens, M. luteus) incubation, the OD600nm was determined. The planktonic cells and media were discarded, and the wells were washed twice with deionized water. The biofilm was fixed for 1 h at 60 °C and stained with crystal violet 0.06% for 10 min. The dye was discarded, and the wells were again washed twice with deionized water. The stained biofilm was solubilized with 30% acetic acid and the OD600nm was determined. […] The percentage of biofilm inhibition was calculated as the amount of biofilm relative to that of the bacterial species without added compounds (with the same amount of DMSO added). CuSO4 (5 μM), a potent antifouling agent used in antifouling paints, was used as reference.
(§4) All assays were performed in triplicate, and results are representative of the average and standard error of the mean (SEM). Statistical analysis was performed in GraphPad Prism 8.0.2, using one-way ANOVA followed by a Dunnett’s multiple comparisons test against the control (species grown with the same amount of DMSO added).

In a further data set the test system is M. hydrocarbonoclasticus. Nature of the data set: Biofilm inhibition assay (crystal violet). In kind it is cell-based, Marinobacter hydrocarbonoclasticus. The note with it: 31.25 µg/mL. The procedure:
as §1, §2, §3, §4

In a further data set the test system is M. luteus. Nature of the data set: Bacterial growth inhibition assay (OD600nm). In kind it is cell-based, Micrococcus luteus.
Description: as §2
(§5) The antibacterial activity of the napyradiomycins (1–12) was assessed in 96-well polystyrene flat bottom microplates (Nunclon Delta Surface, Thermo Scientific, Roskilde, Denmark) following previously reported procedures. […] After 24 h (M. hydrocarbonoclasticus, C. marina) or 48 h (P. batsensis, P. inhibens, M. luteus) incubation, the OD600nm was determined (Molecular Devices, Spectra Max 190). […] The percentage of growth inhibition was calculated as the amount of growth relative to that of the bacterial species without added compounds (with the same amount of DMSO added). CuSO4 (5 μM), a potent antifouling agent used in antifouling paints, was used as reference.
(§6) All assays were performed in triplicate, and results are representative of the average and standard error of the mean (SEM). Statistical analysis was performed in GraphPad Prism 8.0.2 (San Diego, CA, USA), using one-way ANOVA followed by a Dunnett’s multiple comparisons test against the control (species grown with the same amount of DMSO added).

Another data set relates to P. batsensis. Nature of the data set: Biofilm inhibition assay (crystal violet). In kind it is cell-based, Pseudooceanicola batsensis. The note with it: Pseudooceanicola batsensis. Here is the method: as §1, §2, §3, §4
Data set [2] is described as follows: Mussel plantigrade larvae settlement, 15 h acute exposure assay. In kind it is in vivo. The note with it: Mytilus galloprovincialis (mussel, plantigrade larvae), in vivo, no mortality at highest tested concentration 12 µg/mL. Here is the method:
(§7) Mussel (M. galloprovincialis) adhesive larvae (plantigrades) were used to assess in vivo the antifouling activity of napyradiomycins (1–12) towards macrofouling. Juvenile mussel aggregates were collected at the intertidal rocky shore during low spring tides, at Memória beach, Matosinhos, Portugal (41°13′59″ N; 8°43′28″ W). At the laboratory, immediately before the bioassays, mussel plantigrade larvae were screened and isolated from the juvenile aggregates using a binocular microscope (Olympus SZX2-ILLT, Hamburg, Germany) and washed with filtered seawater to remove organic debris. Only competent plantigrade larvae (those showing foot exploratory behavior) were selected and used in the exposure bioassays following previously validated procedures. Plantigrades were exposed in 24-well polystyrene plates for 15 h in the darkness at 18 °C. DMSO was used as solvent for crude extracts, fractions and pure compounds stock and working solutions. Working solutions were prepared by successive dilutions of stock solutions in DMSO and then diluted in filtered seawater to obtain the test solutions. DMSO concentration in test solutions was always 0.1%. Four well replicates were used per condition with five larvae per well. Two negative controls, one with ultra-pure water and the other with DMSO 0.1% were included in all bioassays, as well as a positive control with 5 μM CuSO4 (a potent antifouling agent). Anti-settlement bioactivity was determined by the presence/absence of fixed byssal threads produced by each individual larvae for all the conditions tested. […] Chi-square Pearsons goodness-of-fit test was applied to data in order to determine EC50. Significance was considered at p < 0.01 for all analyses, and 95% lower and upper confidence limits [95% LCL; UCL] were presented. Therapeutic ratio (LC50/EC50) was used to evaluate the effectiveness vs. toxicity of compounds [19, 21].

Data set [3] concerns M. galloprovincialis plantigrade larvae. The data set is described as above. The data set is classed as in vivo. The note with it: 95% LCL, UCL in brackets. The procedure: as §7
Data set [4] deals with C. marina. The data set is described as follows: Bacterial growth inhibition assay (OD600nm). The data set is classed as cell-based, Cobetia marina.
Description: as §2, §5, §6

The inhibition is the drop in the measured response relative to a control, in per cent. By LC50 is commonly meant the concentration that kills 50% of the test population. By EC50 is commonly meant the midpoint of the concentration-response curve.

As for `CC(C)=CCCC(C)=CCC12OC(C)(C)C(Cl)CC1(Cl)C(=O)c1c(O)cc(O)cc1C2=O` (stereo not drawn) [Napyradiomycin 1, napyradiomycin A1], the “% Biofilm Inhibition ± SEM C. marina” value with C. marina [1] is recorded as “N.I”. Also, in the data set on M. hydrocarbonoclasticus, the “% Biofilm Inhibition ± SEM M. hydrocarbonoclasticus” value is reported as “N.I”. Also, the “% growth inhibition M. luteus” value in the data set on M. luteus (3.91 µg/mL) came out at 93.6 ± 1.1%. The inhibition at 0.98 µg/mL came out at 42.9 ± 0.4% with M. luteus (Micrococcus luteus, 0.98 µg/mL) and 4.3 ± 4.3% in the data set with P. batsensis (0.98 µg/mL, read-out: % inhibition of biofilm formation P. batsensis). The inhibition at 1.95 µg/mL amounted to 69.8 ± 0.5% with M. luteus (Micrococcus luteus, 1.95 µg/mL) and 17.7 ± 0.8% in the data set on P. batsensis (1.95 µg/mL, read-out: % inhibition of biofilm formation P. batsensis). Further, the inhibition at 3.91 µg/mL is above 90% with M. luteus (Micrococcus luteus, 3.91 µg/mL); 38.1 ± 0.6% in the data set on P. batsensis (3.91 µg/mL, read-out: % inhibition of biofilm formation P. batsensis); 5.5 ± 0.8% in the data set on C. marina [4] (Cobetia marina, 3.91 µg/mL). Also, the inhibition at 7.81 µg/mL with M. luteus (Micrococcus luteus, 7.81 µg/mL) was determined as 96 ± 0.3%; in the data set with P. batsensis (7.81 µg/mL, read-out: % inhibition of biofilm formation P. batsensis), 28.4 ± 2.8%; with C. marina [4] (Cobetia marina, 7.81 µg/mL) it was 18.2 ± 0.7%. The inhibition at 15.6 µg/mL turned out to be 96.5 ± 0.2% in the data set with M. luteus (Micrococcus luteus, 15.60 µg/mL); 86.9 ± 1% in the data set on P. batsensis (15.6 µg/mL, read-out: % inhibition of biofilm formation P. batsensis); 15.3 ± 0.7% with C. marina [4] (Cobetia marina, 15.60 µg/mL). Moreover, the inhibition at 31.25 µg/mL in the data set on M. luteus (Micrococcus luteus, 31.25 µg/mL) is 96.1 ± 0.5%; with P. batsensis (31.25 µg/mL, read-out: % Biofilm Inhibition ± SEM P. batsensis) it was 87.2 ± 0.1%; in the data set with C. marina [4] (Cobetia marina, 31.25 µg/mL), 19.8 ± 0.6%. This molecule returned an LC50 at 15 h in data set [2] above 12 µg/mL. Also, the “EC50 [Conf. limits] larval settlement” value in data set [3] was 0.655 [0.300; 0.906] µg/mL. In addition, in data set [3] (Mytilus galloprovincialis, 15 h, read-out: EC50 [Conf. limits] larval settlement), the EC50 turned out to be 0.66 µg/mL (≈ 1.37 µM). The “% growth inhibition C. marina” value with C. marina [4] (0.98 µg/mL) and with C. marina [4] (1.95 µg/mL) was “N.I” each time.
